Consider eleven compounds from patent publication US4450115A, “Amino-alcohol derivatives” (Kyowa Hakko Kogyo Co., Ltd., priority 1979, dated 1984).

Each structure is given as a SMILES string. Like-named read-outs stand apart in the source and are kept apart here. Bounds are passed on as bounds.

A short description of data set [1]: in vivo. The conditions noted are these: mouse, male dd-strain mice. The source says: The test compounds were orally administered to male dd-strain mice weighing 20-25 g.
Data set [2] is described as follows: Effect on heart rate. It is filed as in vivo, mongrel dogs. The following applies: Table 7; dogs, 1 mg/kg, femoral vein. As for the experimental part: (§1) In experiments (a), (b), (c) and (d), 3-4 male or female mongrel dogs (weight: 10-20 Kg) as one group were anesthetized by intravenous administration of 30 mg/kg of pentobarbital-Na. All compounds were dissolved in polyethylene glycol 400 and administered to the femoral vein.
(d) Effect on heart rate (beats/min.)

The test system of data set [3] is main artery of the dogs' organ. Briefly: Effect on organ blood flow.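 Further: percent change relative to blood flow before compound administration.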 The following applies: Canis lupus familiaris, iv, Table 7, femoral vein. It is filed as in vivo, mongrel dogs. Here is the method: as §1
(b) Effect on organ blood flow M (%)
In this test, 1 mg/kg of each compound shown in Tables 5 and 7 is administered to the dogs and an electromagnetic probe is attached to the main artery of the dogs' organ to measure the flow of blood.

Data set [4] concerns α-adrenergic receptor. The data set can be described thus: α blocking activity (inhibition of Norepinephrine-induced increase in systolic blood pressure). It is filed as in vivo, mongrel dogs. The conditions noted are these: Table 6; dogs, test compound 0.1 mg/kg; 3 μg/kg Norepinephrine i.v. As for the experimental part:
as §1
(c-1) α blocking activity
In this test, 3 μg/kg of Norepinephrine is intravenously administered to the dogs to cause an increase in systolic blood pressure.

In data set [5] the test system is β1-adrenergic receptor. Briefly: β1 blocking activity (inhibition of Isoproterenol-induced increase in heart rate). It is filed as in vivo, mongrel dogs. The conditions noted are these: Table 6; dogs, test compound 0.1 mg/kg; 0.5 μg/kg Isoproterenol i.v. As for the experimental part: as §1
(c-2) β1 blocking activity
In this test, 0.5 μg/kg of Isoproterenol is intravenously administered to the dogs to cause an increase in the heart rate.

Data set [6] relates to β2-adrenergic receptor. The data set can be described thus: β2 blocking activity (inhibition of Isoproterenol-induced decrease in diastolic blood pressure). It is filed as in vivo, mongrel dogs. The conditions noted are these: Table 6; dogs, test compound 0.1 mg/kg; 0.5 μg/kg Isoproterenol i.v. As for the experimental part:
as §1
(c-3) β2 blocking activity
In this test, 0.5 μg/kg of Isoproterenol is intravenously administered to the dogs to cause a decrease in diastolic blood pressure.

Data set [7] deals with main artery of the dogs' organ. Briefly: Effect on organ blood flow.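 Further: percent change relative to blood flow before compound administration.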 It is filed as in vivo, mongrel dogs. The following applies: Canis lupus familiaris, iv, Table 5, 0.1 mg administration, femoral vein.
The mark [8] stands for this setting: read-out: Organ blood flow, Crotch (percentage change).
Setting [9] is: read-out: Organ blood flow, Malleus (percentage change).

For orientation: LD50 means the dose expected to kill half of the subjects tested. Low readings indicate greater toxicity, high ones lower toxicity. For the compound `CCCC(=O)Nc1ccc(OCC(O)CNCCN(Cc2ccccc2)C(C)COc2ccccc2)c(C(C)=O)c1` (stereo not drawn) [Compound 28, 1-(4-butyrylamido-2-acetylphenoxy)-3-{β-[N-benzyl-N-(1-methyl-2-phenoxyethyl)]aminoethyl} amino-2-propanol], in data set [1] (Table 7, oral), the LD50 was in the range of 1000 to 2000 mg/kg. Besides, in data set [2], the “Heart rate (decrease)” value is given as -8 beats/min. In addition, the change in vivo at 1 mg/kg in data set [3] (setting [8]) turned out to be 4%; in data set [3] (setting [9]), 61%.

With `CCOC(=O)Cc1ccc(OCC(O)CNCCN(Cc2ccccc2)C(C)COc2ccccc2)cc1` (stereo not drawn) [Compound 26, 1-(4-ethoxycarbonylmethylphenoxy)-3-{β-[N-benzyl-N-(1-methyl-2-phenoxyethyl)]aminoethyl}amino-2-propanol], the LD50 in data set [1] (Table 7, oral) was greater than 1000 mg/kg. In addition, in data set [2], the “Heart rate (decrease)” value is -20 beats/min. The results for the change in vivo at 1 mg/kg in data set [3] (setting [8]) and in data set [3] (setting [9]) were -12% and 67%, respectively.

`CC(=O)Nc1ccc(OCC(O)CNCCN(Cc2ccccc2)C(C)COc2ccccc2)cc1` (stereo not drawn) [Compound 27, 1-(4-acetamidophenoxy)-3-{β-[N-benzyl-N-(1-methyl-2-phenoxyethyl)]aminoethyl} amino-2-propanol] registered an LD50 in data set [1] (Table 7, oral) greater than 1000 mg/kg. Besides, the “Heart rate (decrease)” value in data set [2] is recorded as -13 beats/min. In addition, the change in vivo at 1 mg/kg in data set [3] (setting [8]) came out at 3%; in data set [3] (setting [9]), 100%.

On to `Cc1cccc(OCC(O)CNCCN(Cc2ccccc2)C(C)COc2ccccc2)c1` (stereo not drawn) [Compound 29, 1-(3-methylphenoxy)-3-{β-[N-benzyl-N-(1-methyl-2-phenoxyethyl)]aminoethyl} amino-2-propanol], for which the “Heart rate (decrease)” value in data set [2] is recorded as -4 beats/min. In addition, the change in vivo at 1 mg/kg in data set [3] (setting [8]) is -45%; in data set [3] (setting [9]), 100%.

For `CCOC(=O)Cc1ccc(OCC(O)CNC(C)COc2ccc(OC)cc2)cc1` (centres unmarked) [Compound 32, 1-(4-ethoxycarbonylmethylphenoxy)-3-{1-methyl-2-(4-methoxyphenoxy)ethylamino}-2-propanol], in data set [4], the “α blocking activity, percentage inhibition” value stood at 0%. In data set [5], the “β1 blocking activity, percentage inhibition” value is on record as -11%. The compound also had a 50% lethal dose (LD50) in data set [1] (Table 6, oral) greater than 1000 mg/kg. For the same compound, the “β2 blocking activity, percentage inhibition” value in data set [6] is on record as -2%.

`CCCC(=O)Nc1ccc(OCC(O)CNCC2COc3ccccc3O2)c(C(C)=O)c1` (centres unmarked) [Compound 4, 1-(4-butyrylamido-2-acetyl)phenoxy-3-(1,4-benzodioxane-2-methaneamino)-2-propanol]: the change in vivo at 0.1 mg in data set [7] (setting [8]) is -18%; in data set [7] (setting [9]), -46%. This compound also returned an LD50 in data set [1] (Table 5, oral) greater than 1000 mg/kg.

`CC(COc1ccccc1)N(CCNCC(O)COc1ccc(CC(N)=O)cc1)Cc1ccccc1` (stereo not drawn) [Compound 30, 1-(4-carbamoylmethylphenoxy)-3-{β-[N-benzyl-N-(1-methyl-2-phenoxyethyl)]aminoethyl} amino-2-propanol]: the “Heart rate (decrease)” value in data set [2] is -5 beats/min. The results for the change in vivo at 1 mg/kg in data set [3] (setting [8]) and in data set [3] (setting [9]) were -19% and 10%, respectively.

Consider `COc1ccc(OCC(C)NCC(O)COc2ccccc2C#N)cc1` (centres unmarked) [Compound 31], for which the “α blocking activity, percentage inhibition” value in data set [4] was -20%. For the same compound, the “β1 blocking activity, percentage inhibition” value in data set [5] is given as -54%. This compound also registered an LD50 in data set [1] (Table 6, oral) of 125 to 250 mg/kg. The “β2 blocking activity, percentage inhibition” value in data set [6] was -30%.

Take `CC(CCc1ccccc1)NCC(O)COc1cccc(CC(N)=O)c1` (centres unmarked) [Compound 20, 1-(3-carbamoylmethylphenoxy)-3-(1-methyl-3-phenylpropylamino)-2-propanol]: the “α blocking activity, percentage inhibition” value in data set [4] is given as “+7%”. In addition, the “β1 blocking activity, percentage inhibition” value in data set [5] is given as -9%. In data set [1] (Table 6, oral), this compound returned an LD50 greater than 1000 mg/kg. For the same compound, the “β2 blocking activity, percentage inhibition” value in data set [6] was “+9%”.

As to `CCOC(=O)Cc1ccc(OCC(O)CNC(C)CCc2ccccc2)cc1` (centres unmarked) [Compound 14, 1-(4-ethoxycarbonylmethylphenoxy)-3-(1-methyl-3-phenylpropylamino)-2-propanol], the “α blocking activity, percentage inhibition” value in data set [4] is on record as “+13%”. In addition, in data set [5], the “β1 blocking activity, percentage inhibition” value is on record as -11%. The median lethal dose (LD50) in data set [1] (Table 6, oral) is greater than 1000 mg/kg. In addition, in data set [6], the “β2 blocking activity, percentage inhibition” value is given as “+2%”.

On to `COC(=O)c1ccccc1OCC(O)CNC(C)CCc1ccccc1` (centres unmarked) [Compound 15, 1-(2-methoxycarbonylphenoxy)-3-(1-methyl-3-phenylpropylamino)-2-propanol], for which, in data set [4], the “α blocking activity, percentage inhibition” value is listed as -2%. Besides, the “β1 blocking activity, percentage inhibition” value in data set [5] is recorded as -30%. This compound displayed a 50% lethal dose (LD50) in data set [1] (Table 6, oral) of 500 to 1000 mg/kg. In addition, the “β2 blocking activity, percentage inhibition” value in data set [6] is on record as -40%.
